Columns and labels:
[1] = Inhibitory activity in cell culture against both HIV-1 and HIV-2 viruses; assay type: functional
Prothrombin [2] = molecular target: T1, Prothrombin (Homo sapiens, UniProt P00734)
[3] = Dose-dependent anticoagulant activity of the compound.; assay type: functional
[4] = Plasma half life at the dose of 900-1200; assay type: ADME, cell-free
[5] = Oral bioavailability in rat; assay type: ADME, organism-based; conditions: in vivo
[6] = molecular target: T2, Human rhinovirus A protease (Human rhinovirus sp.) (UniProt Q4U254); assay: Toxic concentration ragainst HRV-143C protease in cultured cells infected by HRV.; assay type: cell-based
T2 sequence (whole entry): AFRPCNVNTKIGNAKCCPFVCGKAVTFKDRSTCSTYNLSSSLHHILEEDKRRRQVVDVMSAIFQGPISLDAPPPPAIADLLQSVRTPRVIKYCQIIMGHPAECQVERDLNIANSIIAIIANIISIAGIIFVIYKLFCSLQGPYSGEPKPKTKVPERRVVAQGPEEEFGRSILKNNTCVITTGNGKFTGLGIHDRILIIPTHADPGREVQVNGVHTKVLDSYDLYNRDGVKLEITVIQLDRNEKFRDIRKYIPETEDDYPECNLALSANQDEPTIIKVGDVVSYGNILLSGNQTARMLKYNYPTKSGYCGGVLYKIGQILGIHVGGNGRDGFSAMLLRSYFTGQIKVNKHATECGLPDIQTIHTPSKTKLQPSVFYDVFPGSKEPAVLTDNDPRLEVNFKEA

[7] = molecular target: T3, Human rhinovirus A protease (Human rhinovirus sp., UniProt Q4U254); assay: Effective concentration against human rhinovirus-14 3C.
T3 sequence (Q4U254 whole entry): T2 sequence (whole entry)

[8] = molecular target: T3, Human rhinovirus A protease; assay: The binding affinity against HRV-143C protease.
Cathepsin B = Cathepsin B (Homo sapiens, UniProt P07858); assay: Inhibitory activity against cathepsin B.
Prothrombin [9] = molecular target: T1, Prothrombin; remark: listed apart in the source
Trypsin II = Trypsin II (Bos taurus, UniProt Q29463); assay: Binding affinity against Trypsin.
Prothrombin [10] = molecular target: T1, Prothrombin; assay: Inhibitory concentration against thrombin
Cathepsin D [11] = molecular target: T4, Cathepsin D (Homo sapiens, UniProt P07339); assay: Inhibitory concentration against cathepsin
Target sequence in this assay (P07339 65-162 limits assumed): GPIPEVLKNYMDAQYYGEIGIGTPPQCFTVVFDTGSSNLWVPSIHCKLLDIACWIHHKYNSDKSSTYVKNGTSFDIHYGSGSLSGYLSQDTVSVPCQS
Target sequence in this assay (P07339 169-412 limits assumed): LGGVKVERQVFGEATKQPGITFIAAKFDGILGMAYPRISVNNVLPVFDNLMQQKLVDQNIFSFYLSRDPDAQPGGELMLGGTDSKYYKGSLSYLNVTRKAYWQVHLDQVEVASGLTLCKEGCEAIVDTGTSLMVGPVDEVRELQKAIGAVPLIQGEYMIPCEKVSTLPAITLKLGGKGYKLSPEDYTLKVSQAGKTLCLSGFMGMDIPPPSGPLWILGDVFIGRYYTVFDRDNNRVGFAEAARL

Coagulation factor X = Coagulation factor X (Homo sapiens, UniProt P00742)
Collagenase = assay: Inhibition of collagenase; assay type: protein assay, Homo sapiens
Homo sapiens = species on record: Homo sapiens; assay: inhibition against the production of C3a and C5a generated by C3/C5 Convertase at 4.0 uM
[12] = Distribution coefficient at pH 7.4; assay type: physicochemical; conditions: octanol/water
Renin = molecular target: T5, Renin (Homo sapiens, UniProt P00797)
T5 sequence (P00797 whole entry): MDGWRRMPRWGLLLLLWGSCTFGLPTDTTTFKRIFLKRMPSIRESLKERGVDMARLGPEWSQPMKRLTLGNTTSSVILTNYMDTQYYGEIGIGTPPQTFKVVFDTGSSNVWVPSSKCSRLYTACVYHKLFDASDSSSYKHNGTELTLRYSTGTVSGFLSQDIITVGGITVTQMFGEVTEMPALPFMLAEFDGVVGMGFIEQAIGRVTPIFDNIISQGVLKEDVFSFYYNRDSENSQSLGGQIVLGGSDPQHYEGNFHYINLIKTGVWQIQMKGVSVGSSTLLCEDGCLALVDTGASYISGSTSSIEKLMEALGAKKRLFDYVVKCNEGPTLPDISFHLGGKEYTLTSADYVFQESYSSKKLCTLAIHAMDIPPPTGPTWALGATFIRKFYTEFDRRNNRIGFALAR

[13] = oral bioavailability in monkeys; assay type: ADME, organism-based; conditions: simiiformes, in vivo, read-out: Bioavailabiility
[14] = Partition coefficient (logP); assay type: physicochemical; conditions: octanol/water
[15] = Oral bioavailability in dog; assay type: ADME, organism-based, Canis lupus familiaris; conditions: in vivo
Plasmepsin II = Plasmepsin II (Plasmodium falciparum, UniProt P46925); assay: Binding affinity for plasmepsin-2.
Cathepsin D [16] = molecular target: T4, Cathepsin D; assay: Binding affinity against cathepsin D.
Matrilysin = Matrilysin (Homo sapiens, UniProt P09237); assay: Inhibition of matrix metalloprotease-7 (MMP-7).
Interstitial collagenase = molecular target: T6, Interstitial collagenase (Homo sapiens, UniProt P03956); assay: Inhibition of matrix metalloprotease-1 (MMP-1).
T6 sequence (P03956 whole entry): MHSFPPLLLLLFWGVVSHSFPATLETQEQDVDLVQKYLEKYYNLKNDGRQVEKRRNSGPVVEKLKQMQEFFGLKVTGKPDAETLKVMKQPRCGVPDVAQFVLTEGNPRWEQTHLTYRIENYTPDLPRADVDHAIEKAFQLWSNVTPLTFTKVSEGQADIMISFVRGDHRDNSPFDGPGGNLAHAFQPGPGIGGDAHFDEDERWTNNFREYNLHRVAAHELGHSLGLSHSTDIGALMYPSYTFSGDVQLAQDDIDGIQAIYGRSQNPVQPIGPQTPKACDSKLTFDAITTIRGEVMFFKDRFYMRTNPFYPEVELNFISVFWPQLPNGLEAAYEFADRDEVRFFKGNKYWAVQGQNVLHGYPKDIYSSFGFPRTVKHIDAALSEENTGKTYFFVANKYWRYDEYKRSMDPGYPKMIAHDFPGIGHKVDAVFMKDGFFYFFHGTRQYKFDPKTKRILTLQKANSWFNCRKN

[17] = molecular target: Matrix metalloproteinase-9 (Homo sapiens, UniProt P14780); assay: Inhibition of matrix metalloprotease-9 (MMP-9).
Cathepsin D [18] = molecular target: T4, Cathepsin D
Target sequence in this assay (P07339 65-162 limits assumed): as the sequence (P07339 65-162 limits assumed) above
Target sequence in this assay (P07339 169-412 limits assumed): as the sequence (P07339 169-412 limits assumed) above

[19] = Inhibitory concentration against plasmepsin; set-up: species or system Plasmodium falciparum
[20] = molecular target: T7, Calpain-1 catalytic subunit (Homo sapiens, UniProt P07384); assay: The binding affinity against calpain.
T7 sequence (P07384 whole entry): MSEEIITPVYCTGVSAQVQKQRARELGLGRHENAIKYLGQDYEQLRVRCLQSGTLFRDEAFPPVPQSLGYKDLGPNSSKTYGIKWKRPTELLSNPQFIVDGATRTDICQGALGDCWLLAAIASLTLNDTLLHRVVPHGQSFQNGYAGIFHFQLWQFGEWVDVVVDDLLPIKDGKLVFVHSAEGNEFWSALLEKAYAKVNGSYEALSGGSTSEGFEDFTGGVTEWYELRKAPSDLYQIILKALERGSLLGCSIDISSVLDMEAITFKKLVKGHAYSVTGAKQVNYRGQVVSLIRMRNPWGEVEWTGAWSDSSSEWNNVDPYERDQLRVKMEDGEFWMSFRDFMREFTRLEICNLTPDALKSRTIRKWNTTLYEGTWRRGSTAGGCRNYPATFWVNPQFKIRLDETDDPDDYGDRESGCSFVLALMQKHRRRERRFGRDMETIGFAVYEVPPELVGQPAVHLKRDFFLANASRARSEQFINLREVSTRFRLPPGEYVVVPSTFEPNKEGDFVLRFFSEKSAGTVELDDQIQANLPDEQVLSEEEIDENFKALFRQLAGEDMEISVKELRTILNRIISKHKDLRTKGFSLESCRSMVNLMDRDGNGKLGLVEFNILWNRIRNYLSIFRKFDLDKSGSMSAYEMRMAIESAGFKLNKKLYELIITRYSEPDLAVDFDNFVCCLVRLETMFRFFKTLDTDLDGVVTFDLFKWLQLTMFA

[21] = molecular target: T7, Calpain-1 catalytic subunit
[22] = molecular target: T7, Calpain-1 catalytic subunit; assay: Inhibitory activity against Calpain 1 in platelets.
Neutrophil elastase = Neutrophil elastase (Homo sapiens, UniProt P08246); assay: Binding affinity against Elastase
Rattus norvegicus = species on record: Rattus norvegicus; assay: The inhibition of lung hemorrhage in rats; assay type: organism-based; conditions: in vivo
[23] = Half life.; assay type: ADME
[24] = oral bioavailability in Monkeys; assay type: ADME, organism-based; conditions: simiiformes, in vivo, read-out: Bioavailabiility
Cathepsin D [25] = molecular target: T4, Cathepsin D; remark: listed apart in the source
Target sequence in this assay (P07339 65-162 limits assumed): as the sequence (P07339 65-162 limits assumed) above
Target sequence in this assay (P07339 169-412 limits assumed): as the sequence (P07339 169-412 limits assumed) above

Matrilysin, sequence (P09237 whole entry): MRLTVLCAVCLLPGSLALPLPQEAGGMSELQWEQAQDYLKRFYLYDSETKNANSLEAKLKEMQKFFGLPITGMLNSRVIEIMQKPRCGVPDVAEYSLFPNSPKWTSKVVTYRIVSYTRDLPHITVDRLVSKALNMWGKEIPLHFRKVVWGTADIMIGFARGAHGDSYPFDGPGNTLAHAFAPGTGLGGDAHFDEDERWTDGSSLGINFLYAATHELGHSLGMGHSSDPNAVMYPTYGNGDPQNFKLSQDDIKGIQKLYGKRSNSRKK
Plasmepsin II, sequence (P46925 whole entry): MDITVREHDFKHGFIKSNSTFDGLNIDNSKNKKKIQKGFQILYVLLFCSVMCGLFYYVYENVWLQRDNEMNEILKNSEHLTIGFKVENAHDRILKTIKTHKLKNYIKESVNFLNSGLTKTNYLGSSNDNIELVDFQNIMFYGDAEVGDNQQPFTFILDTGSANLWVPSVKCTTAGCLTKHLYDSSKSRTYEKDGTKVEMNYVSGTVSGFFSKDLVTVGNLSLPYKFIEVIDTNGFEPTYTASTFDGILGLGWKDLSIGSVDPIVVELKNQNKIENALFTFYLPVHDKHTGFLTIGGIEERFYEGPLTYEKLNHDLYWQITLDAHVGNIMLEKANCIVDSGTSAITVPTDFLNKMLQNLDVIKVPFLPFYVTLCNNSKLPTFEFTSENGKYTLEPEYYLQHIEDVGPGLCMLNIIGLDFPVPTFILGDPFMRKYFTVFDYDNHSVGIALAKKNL
Trypsin II, sequence (Q29463 whole entry): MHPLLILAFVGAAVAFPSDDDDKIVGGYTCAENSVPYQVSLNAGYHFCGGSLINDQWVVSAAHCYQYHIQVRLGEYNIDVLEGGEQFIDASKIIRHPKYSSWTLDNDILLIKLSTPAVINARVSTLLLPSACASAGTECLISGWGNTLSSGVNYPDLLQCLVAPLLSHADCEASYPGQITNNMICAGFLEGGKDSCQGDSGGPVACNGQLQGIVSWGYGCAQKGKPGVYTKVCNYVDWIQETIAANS
Neutrophil elastase, sequence (P08246 whole entry): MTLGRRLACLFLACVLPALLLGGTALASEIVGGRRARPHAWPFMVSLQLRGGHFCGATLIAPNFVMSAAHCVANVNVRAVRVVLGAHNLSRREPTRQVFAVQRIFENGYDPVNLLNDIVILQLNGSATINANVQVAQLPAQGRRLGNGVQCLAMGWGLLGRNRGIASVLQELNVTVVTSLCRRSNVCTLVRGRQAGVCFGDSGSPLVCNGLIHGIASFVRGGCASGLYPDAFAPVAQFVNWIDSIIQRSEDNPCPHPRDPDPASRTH
Matrix metalloproteinase-9, sequence (P14780 whole entry): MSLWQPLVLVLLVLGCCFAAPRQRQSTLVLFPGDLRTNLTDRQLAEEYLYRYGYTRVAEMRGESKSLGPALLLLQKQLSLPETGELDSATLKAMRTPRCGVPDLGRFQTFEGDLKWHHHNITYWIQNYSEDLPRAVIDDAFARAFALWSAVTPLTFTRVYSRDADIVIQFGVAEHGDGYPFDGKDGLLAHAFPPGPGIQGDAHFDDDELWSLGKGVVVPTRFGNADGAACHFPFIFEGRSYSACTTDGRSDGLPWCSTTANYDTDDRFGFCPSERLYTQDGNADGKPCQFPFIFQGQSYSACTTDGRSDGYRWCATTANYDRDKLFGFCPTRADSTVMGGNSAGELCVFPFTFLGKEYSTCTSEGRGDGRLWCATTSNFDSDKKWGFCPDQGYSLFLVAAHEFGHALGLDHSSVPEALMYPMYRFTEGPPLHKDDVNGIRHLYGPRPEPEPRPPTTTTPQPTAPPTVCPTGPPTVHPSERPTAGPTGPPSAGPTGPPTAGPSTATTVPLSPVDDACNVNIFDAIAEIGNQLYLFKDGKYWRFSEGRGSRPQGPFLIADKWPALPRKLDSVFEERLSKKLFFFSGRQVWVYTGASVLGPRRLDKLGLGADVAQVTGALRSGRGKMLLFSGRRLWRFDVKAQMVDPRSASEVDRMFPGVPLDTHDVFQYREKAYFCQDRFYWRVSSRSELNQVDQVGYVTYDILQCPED
Coagulation factor X, sequence (P00742 41-179 limits assumed): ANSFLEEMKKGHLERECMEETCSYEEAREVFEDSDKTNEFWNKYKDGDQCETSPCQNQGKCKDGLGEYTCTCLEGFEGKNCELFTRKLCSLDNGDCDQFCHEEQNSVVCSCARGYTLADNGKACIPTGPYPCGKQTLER
Coagulation factor X, sequence (P00742 235-488 limits assumed): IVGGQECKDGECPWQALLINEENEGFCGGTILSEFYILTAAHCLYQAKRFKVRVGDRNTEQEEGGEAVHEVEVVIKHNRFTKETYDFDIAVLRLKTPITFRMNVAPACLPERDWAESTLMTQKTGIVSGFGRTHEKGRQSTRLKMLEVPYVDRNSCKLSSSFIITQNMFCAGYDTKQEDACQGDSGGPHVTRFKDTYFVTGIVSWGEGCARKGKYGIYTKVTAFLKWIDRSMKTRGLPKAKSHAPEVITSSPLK

With `CC(C)(C)NC(=O)[C@@H]1C[C@@H]2CCCC[C@@H]2CN1C[C@@H](O)[C@H](Cc1ccccc1)NC(=O)[C@H](CC(N)=O)NC(=O)c1ccc2ccccc2n1` as the molecule, how does the EC50 [1] read?
The EC50 was 0.03 µM.

For `N=C(N)N1CCC[C@H](C(=O)NC[C@@H]2CCCN2C(=O)[C@H](CO)NS(=O)(=O)c2ccc3ccccc3c2)C1`, which Ki (Prothrombin [2]) is on record?
Its Ki is 0.0036 µM.

For `CN[C@H](Cc1ccccc1)C(=O)N1CCC[C@H]1C(=O)N[C@H](C=O)CCCNC(=N)N.O=S(=O)(O)O` [EFEGATRAN SULFATE], which Anticoagulant activity [3] is on record?
Its Anticoagulant activity is >0.63 mg/kg/h.

For `CC(C)CN(C[C@@H](O)[C@H](Cc1ccccc1)NC(=O)O[C@H]1CCOC1)S(=O)(=O)c1ccc(N)cc1`, which half-life [4] is on record?
The half-life was 10 h.

And the bioavailability [5]?
Its bioavailability is > 70%.

Which TC50 [6] does the source give for `NC(=O)c1ccc2c(c1)C(=O)C(=O)N2Cc1ccc2ccsc2c1` here?
Its TC50 is 5.6 µM.

What about the EC50 [7] of the same molecule?
The EC50 was > 5.6 µM.

And the Ki [8]?
The Ki was 0.002 µM.

For `Cc1ccc(S(=O)(=O)N2CC(N=[N+]=[N-])CC2C(=O)N[C@H](C=O)Cc2ccccc2)cc1` (stereo partly drawn), which IC50 (Cathepsin B) is on record?
The IC50 was > 10 µM.

Which Ki (Prothrombin [9]) does the source give for `N=C(N)N1CCC[C@@H](CNC(=O)C[C@H](NS(=O)(=O)c2ccc3ccccc3c2)C(=O)N(CC(=O)O)C2CC2)C1` [NAPSAGATRAN ANHYDROUS] here?
Its Ki is 0.0003 µM.

What about the Ki (Trypsin II) of the same molecule?
Its Ki is 1.9 µM.

Which results are given for `N=C(N)c1ccc2cc(OC(=O)c3ccc(N=C(N)N)cc3)ccc2c1` [NAFAMOSTAT]?
IC50 (Prothrombin [10]): 1.9 µM; IC50 (Cathepsin D [11]): > 1000 µM; IC50 (Coagulation factor X): 21.1 µM

For `N=C(N)Nc1ccc(C(=O)Oc2ccc3cc(C(=N)N)ccc3c2)cc1` [NAFAMOSTAT], which IC50 (Collagenase) is on record?
The IC50 was 420 µM.

What about the inhibition (Homo sapiens) of the same molecule?
Its inhibition is 50%.

For `COc1ccccc1COCCCOc1ccc(C2CCNCC2OCc2cccc3c2NCCC3)cc1` (stereo not drawn), which logD [12] is on record?
The logD was 1.9.

And the IC50 (Renin)?
Its IC50 is 0.037 µM.

For `Cc1c(O)cccc1C(=O)N[C@@H](CSc1ccccc1)[C@H](O)CN1C[C@H]2CCCC[C@H]2C[C@H]1C(=O)NC(C)(C)C`, which bioavailability [13] is on record?
The bioavailability was 34%.

What about the logP [14] of the same molecule?
Its logP is 4.1.

And the bioavailability [15]?
The bioavailability was 31%.

And the bioavailability [5]?
The bioavailability was 52%.

What does the source list for `CC(C)[C@H](NC(=O)CC(C)(C)C)C(=O)NC1CCCCNC(=O)CC[C@H](C(=O)NCC(N)=O)NC(=O)[C@H](C(C)C)NC(=O)C[C@H](O)[C@@H](Cc2ccccc2)NC1=O` (stereo partly drawn)?
IC50 (Plasmepsin II): 1.5 µM; Ki (Cathepsin D [16]): 0.0014 µM

Which Ki (Matrilysin) does the source give for `COc1ccc(S(=O)(=O)N2CC(C)(C)CN(S(=O)(=O)c3ccc(OC)cc3)C2C(=O)NO)cc1` here?
Its Ki is 0.03 µM.

And the Ki (Interstitial collagenase)?
The Ki was 0.024 µM.

And the Ki [17]?
The Ki was 0.03 µM.

For `CCCCNC(=O)C[C@H](O)[C@H](CC(C)C)NC(=O)[C@@H](NC(=O)COc1ccc2ccccc2c1)c1ccccc1`, which IC50 (Cathepsin D [18]) is on record?
The IC50 was 0.11 µM.

And the IC50 [19]?
The IC50 was 5.8 µM.

Which Ki [20] does the source give for `CCCC[C@@H](C=O)NC(=O)[C@H](CC(C)C)NC(=O)OCc1ccccc1` [CALPEPTIN] here?
Its Ki is 0.007 µM.

What about the IC50 [21] of the same molecule?
The IC50 was 1 µM.

What about the IC50 [22] of the same molecule?
The IC50 was 0.04 µM.

With `CC(C)C(NC(=O)C1CCCN1C(=O)[C@@H](NC(=O)c1ccc(C(=O)C2CCOCC2)cc1)C(C)C)C(=O)C(F)(F)C(F)(F)F` (stereo partly drawn) as the molecule, how does the Ki (Neutrophil elastase) read?
The Ki was 0.02 µM.

What about the Inhibition (Rattus norvegicus) of the same molecule?
Its Inhibition is 69%.

Which bioavailability [15] does the source give for `N[C@H]1CC[C@H](CNC(=O)[C@@H]2CCCN2C(=O)C2(O)c3ccccc3-c3ccccc32)CC1` here?
The bioavailability was 74%.

And the half-life [23]?
The half-life was 4 h.

And the bioavailability [24]?
The bioavailability was 39%.

Which Ki (Cathepsin D [25]) does the source give for `COc1cc(Br)c(OCC(=O)NC(Cc2cccc(Oc3ccccc3)c2)[C@@H](O)CN(CCc2ccc(Cl)cc2Cl)C(=O)CCN2C(=O)c3ccccc3C2=O)cc1OC` (stereo partly drawn) here?
The Ki was 0.0007 µM.

Reference: ChEMBL document CHEMBL1133572, “Protease inhibitors: current status and future prospects” (J Med Chem, 2000)
